# Test results reported in US20210292680A1, “MULTIFUNCTIONAL AROMATIC ALCOHOLS FOR PERSONAL CARE, HOME CARE AND INDUSTRIAL AND INSTITUTIONAL COMPOSITIONS” (EMERALD KALAMA CHEMICAL, LLC, priority 2018, published 2021).
# What was measured:
# [1] = Shear ramp, aqueous solution (viscosity); format: physicochemical; details: hand dish wash
# Protocol: Shear Ramp aqueous solution: The 40 mm cone and plate geometry was used on an AR2000ex rheometer at 25° C. A gap of 29 μm was used. The shear was ramped from 0 s^−1 to 2000 s^−1 over six minutes. Shear rate is expressed in s^−1 or 1/s. Viscosity readings are expressed in Pa·s.
# At 0.5 wt. %, the low shear viscosity increased roughly 36% over the control, while high shear viscosity increased roughly 43%. (Results not shown.)
# R=4 Aromatic Alcohols. Similarly, viscosity modifying behavior is observed in a hand dish wash aqueous surfactant solution using an aromatic alcohol, where R=4 carbons (2-methyl-3-phenylpropanol). […] For 0.5 wt. % aromatic alcohol, the low shear viscosity increased 110% over the control, while high shear viscosity increased approximately 37%. At 1.0 wt. % aromatic alcohol, the viscosity profile changed, yielding increases in low and high shear viscosity of 56% and 94%, respectively.
# [2] = Time to dissolve; format: physicochemical; details: water with 1 wt. % aromatic alcohol
# Protocol: Time to dissolve: Aromatic alcohol, 1% by weight, was added to deionized water to make 500 mL of solution. Stirring was started at 300 rpm. Test ingredient was added to both a 500 mL control deionized water and the 500 mL aromatic alcohol solution as a stopwatch timer was started. The timer was stopped when solution was completely clear and/or no particles of the test ingredient were visible in either sample. This is noted as the “dissolution time”, or time to dissolve. Aromatic alcohols can help solubilize hard-to-dissolve formulation ingredients more quickly and/or without the use of heat. The addition of 1.0 wt. % aromatic alcohol decreased the dissolution time of several common, hard-to-dissolve ingredients as shown in Table 1 below. Table 1 reflects the time to completely dissolve ingredients in water (Control) or water with 1 wt. % aromatic alcohol (R=3 denotes 3-phenylpropanol; R=4 denotes 2-methyl-3-phenylpropanol).
# [3] = Process defoaming evaluation (modified ASTM E2407-04); details: 0.4 wt. % aromatic alcohol; 2.0 wt. % BioSoft N1-7 solution
# Protocol: Defoaming evaluation: Process defoaming was tested using a modified ASTM method (E2407-04 (2015) Standard Test Method for Effectiveness of Defoaming Agents). 250 mL of a 2.0 wt. % surfactant solution was blended at the highest speed setting for 30 seconds, then let sit for 3 minutes. The initial foam height is measured, and then 0.4 wt. % defoamer is dropped onto the surface of the foam. The blender is turned on low speed and the solution is mixed for 1 minute. Foam height is re-measured after an additional five minutes of sitting.
# Process defoaming was tested using a modified ASTM method (E2407-04 (2015) Standard Test Method for Effectiveness of Defoaming Agents) to assess surfactants and determine if there was a relationship between foam destabilization and surfactant type. Two different surfactant solutions were tested. 2.0 wt. % surfactant solutions were prepared as controls using BioSoft® N1-7 and SLES. Thereafter, 0.4 wt. % aromatic alcohols (R=3 and R=4) were added to each surfactant solution for comparison to the controls. After agitation to generate foam, the percent of initial foam volume loss was far less for the control (without aromatic alcohols).
# [4] = Formulation stability of general purpose cleaner on storage; format: physicochemical; details: 0.5 wt. % aromatic alcohol; pH 7; 7 days at 22° C.
# Excerpt: Rapid and complete dissolution of raw materials into aqueous solutions can prevent problems with solution instability over time. For example, a general purpose cleaner containing sodium coco fatty alcohol sulfate and 0.1 wt. % of either hydroxyethyl cellulose or xanthan gum (Table 2) becomes unstable over time across a range of pH values.
# Panel (b) of FIG. 10 compares a general purpose cleaner containing hydroxyethyl cellulose at pH 7 with (right side of panel) and without (left side of panel) the use of 0.5 wt. % aromatic alcohol, stored at room temperature for one week, then shaken to disperse precipitants. Panel (c) of FIG. 10 compares a general purpose cleaner containing xanthan gum at pH 5 with (right side of panel) and without (left side of panel) the use of 0.5 wt. % aromatic alcohol (right,) stored at room temperature for one week, then shaken to disperse precipitants.
# Similar observations were made with formulations of a general purpose cleaner in the absence of hydroxyethyl cellulose or xanthan gum but containing sodium coco fatty alcohol sulfate surfactant (FIG. 11). FIG. 11 compares a sample of a general purpose cleaner at pH 7 with and without 0.5 wt. % aromatic alcohol (R=3, 3-phenylpropanol). […]
# [5] = Final product foam stability (Blender Foam Volume/Drainage method); details: 0.5 wt. % aromatic alcohol incorporated into products
# Protocol: Final product foam stability was tested using Blender Foam Volume/Drainage method published by Henkel Corp. 1981.
# In the foam loss evaluation above, foam destabilization occurred at the time of addition (with mixing) of the aromatic alcohol. Further testing was performed to determine if the foaming ability of final products would be negatively impacted if aromatic alcohols were added to the formulations during the production process. A variety of commercial products were selected for testing, and 0.5 wt. % of aromatic alcohol (R=3, 3-phenylpropanol) was added to each. […] Foam stability of these commercial products was not reduced by the addition of aromatic alcohol.
# [6] = Shear ramp, oil-in-water emulsion (viscosity); format: physicochemical; details: Vanicream skin lotion, concentrations up to 0.5 wt. % aromatic alcohol, 25° C
# Protocol: Shear Ramp oil-in-water emulsion: A 25 mm parallel plate geometry was used on an AR2000ex rheometer at 25° C. A gap of 600 μm was used. The shear was ramped from 0 s^−1 to 100 s^−1 over one minute. Viscosity readings are expressed in Pa·s.
# R=3 Aromatic Alcohol. An R=3 aromatic alcohol, i.e., 3-phenylpropanol, was tested in a commercial oil-in-water emulsion, i.e., Vanicream® skin lotion, at 0.1 wt. %, 0.25 wt. % and 0.5 wt. % addition and compared to a control (without aromatic alcohol). […] The low shear (at 10 s^−1) viscosity was increased 68% over the control, while high shear viscosity (at 70 s^−1) increased roughly 100% (FIG. 1). The increase in high and low shear viscosity achieved desirable rheological traits such as richness, creaminess, and enhanced texture and skin feel in this end use personal care product with the addition of the aromatic alcohol. This unexpected result allows personal care and home care formulators, among others, to reduce or eliminate use of separate rheology modifiers to manipulate the viscosity of the final product.
# [7] = Coco fatty alcohol sulfate 2.0 wt. %
Compound,high shear viscosity increase over the control ([1]; 0.5 wt. % aromatic alcohol),low shear viscosity increase over the control ([1]; 0.5 wt. % aromatic alcohol),high shear viscosity increase over the control ([1]; 1.0 wt. % aromatic alcohol) [%],low shear viscosity increase over the control ([1]; 1.0 wt. % aromatic alcohol) [%],"Time to Dissolve at 22° C. ([2]; 1,2-octanediol 1.0 wt. %) [min]","Time to Dissolve at 22° C. [2, 7] [min]","foam destabilization (foam loss, % of initial foam volume) [3]","homogeneity of general purpose cleaner without hydroxyethyl cellulose or xanthan gum, containing coco fatty alcohol sulfate [4]",foam stability of commercial products [5],low shear viscosity increase over the control ([6]; at 10 s^-1) [%],high shear viscosity increase over the control ([6]; at 70 s^-1)
CC(CO)Cc1ccccc1 (stereo not shown) [2-methyl-3-phenylpropanol],approximately 37%,110%,94,56,7.8,3.5,significantly destabilized foam,,,,
OCCCc1ccccc1 [3-phenylpropanol],roughly 43%,roughly 36%,,,8.1,4.0,significantly destabilized foam,remained homogeneous,not reduced,68,roughly 100%
